Reference: PubChem BioAssay (NCI)
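Cultured in 96-well plates, cells were exposed to test compound for 48 hours across five concentrations. TGI is the concentration that stops growth completely.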

Experiments:
Experiment in all cases: NCI anticancer screen, dose series, 48 h
[1] = system: UO-31 renal
[2] = system: M14 melanoma
[3] = system: HT29 colon
[4] = system: CAKI-1 renal
[5] = system: NCI-H23 lung
[6] = system: SW-620 colon
[7] = system: HL-60(TB) leukemia
[8] = system: A549 NSCLC
[9] = system: MALME-3M melanoma
[10] = system: OVCAR-5 ovarian
[11] = system: SK-MEL-28 melanoma
[12] = system: SF-539 CNS
[13] = system: A498 renal
[14] = system: SF-268 CNS
[15] = system: SN12C renal
[16] = system: SR leukemia
[17] = system: UACC-257 melanoma
[18] = system: SK-MEL-2 melanoma
[19] = system: SF-295 CNS
[20] = system: K-562 leukemia
[21] = system: HCC-2998 colon
[22] = system: NCI-H226 lung
[23] = system: OVCAR-4 ovarian
[24] = system: TK-10 renal
[25] = system: UACC-62 melanoma
[26] = system: RXF 393 renal
[27] = system: OVCAR-3 ovarian
[28] = system: NCI-H460 lung
[29] = system: SNB-19 CNS
[30] = system: ACHN renal
[31] = system: COLO 205 colon
[32] = system: M19-MEL melanoma
[33] = system: EKVX NSCLC
[34] = system: CCRF-CEM leukemia
[35] = system: DLD-1 colon
[36] = system: 786-0 renal
[37] = system: HCT-15 colon
[38] = system: LXFL 529 NSCLC
[39] = system: HCT-116 colon
[40] = system: XF 498 CNS
[41] = system: SNB-75 CNS
[42] = system: DMS 114 small cell lung
[43] = system: HOP-62 NSCLC
[44] = system: U251 CNS
[45] = system: IGROV1 ovarian
[46] = system: MOLT-4 leukemia
[47] = system: RXF-631 renal
[48] = system: LOX IMVI melanoma
[49] = system: SK-MEL-5 melanoma
[50] = system: KM20L2 colon
[51] = system: DMS 273 small cell lung
[52] = system: OVCAR-8 ovarian
[53] = system: SK-OV-3 ovarian
[54] = system: RPMI-8226 leukemia
[55] = system: HOP-92 NSCLC
[56] = system: NCI-H522 lung
[57] = system: SNB-78 CNS
[58] = system: HOP-18 NSCLC
[59] = system: KM12 colon

## Cc1nc2ccncc2[nH]1
[1]
  TGI: > 100 µM
[2]
  TGI: > 100 µM
[3]
  TGI: > 100 µM
[4]
  TGI: > 100 µM
[5]
  TGI: > 100 µM
[6]
  TGI: > 100 µM
[7]
  TGI: > 100 µM
[8]
  TGI: > 100 µM
[9]
  TGI: > 100 µM
[10]
  TGI: > 100 µM
[11]
  TGI: > 100 µM
[12]
  TGI: > 100 µM
[13]
  TGI: > 100 µM
[14]
  TGI: > 100 µM
[15]
  TGI: > 100 µM
[16]
  TGI: > 100 µM
[17]
  TGI: > 100 µM
[18]
  TGI: > 100 µM
[19]
  TGI: > 100 µM
[20]
  TGI: > 100 µM
[21]
  TGI: > 100 µM
[22]
  TGI: > 100 µM
[23]
  TGI: > 100 µM
[24]
  TGI: > 100 µM
[25]
  TGI: > 100 µM
[26]
  TGI: > 100 µM
[27]
  TGI: > 100 µM
[28]
  TGI: > 100 µM
[29]
  TGI: > 100 µM
[30]
  TGI: > 100 µM
[31]
  TGI: > 100 µM
[32]
  TGI: > 100 µM
[33]
  TGI: > 100 µM
[34]
  TGI: > 100 µM
[35]
  TGI: > 100 µM
[36]
  TGI: > 100 µM
[37]
  TGI: > 100 µM
[38]
  TGI: > 100 µM
[39]
  TGI: > 100 µM
[40]
  TGI: > 100 µM
[41]
  TGI: > 100 µM
[42]
  TGI: > 100 µM
[43]
  TGI: > 100 µM
[44]
  TGI: > 100 µM
[45]
  TGI: > 100 µM
[46]
  TGI: > 100 µM
[47]
  TGI: > 100 µM
[48]
  TGI: > 100 µM
[49]
  TGI: > 100 µM
[50]
  TGI: > 100 µM
[51]
  TGI: > 100 µM
[52]
  TGI: > 100 µM

## Cc1cccc(C)c1NC(=O)CCCC(=O)C(C#N)c1ccccc1 (centres undefined)
[1]
  TGI: > 100 µM
[2]
  TGI: > 100 µM
[4]
  TGI: > 100 µM
[5]
  TGI: > 100 µM
[53]
  TGI: > 100 µM
[6]
  TGI: > 100 µM
[7]
  TGI: > 100 µM
[11]
  TGI: > 100 µM
[54]
  TGI: > 100 µM
[16]
  TGI: > 100 µM
[17]
  TGI: > 100 µM
[18]
  TGI: > 100 µM
[20]
  TGI: > 100 µM
[22]
  TGI: > 100 µM
[23]
  TGI: > 100 µM
[26]
  TGI: > 100 µM
[55]
  TGI: > 100 µM
[56]
  TGI: > 100 µM
[30]
  TGI: > 100 µM
[31]
  TGI: > 100 µM
[32]
  TGI: > 100 µM
[34]
  TGI: > 100 µM
[35]
  TGI: > 100 µM
[38]
  TGI: > 100 µM
[39]
  TGI: > 100 µM
[41]
  TGI: > 100 µM
[45]
  TGI: > 100 µM
[46]
  TGI: > 100 µM
[47]
  TGI: > 100 µM
[49]
  TGI: > 100 µM
[57]
  TGI: > 100 µM

## COS(=O)c1cc(Cl)cc(Cl)c1OC(=O)CSSCC(=O)Oc1c(Cl)cc(Cl)cc1S(=O)OC (centres undefined)
[1]
  TGI: 60 µM
[2]
  TGI: 46.3 µM
[3]
  TGI: 96.9 µM
[4]
  TGI: 63.1 µM
[5]
  TGI: 27.8 µM
[53]
  TGI: 80.7 µM
[6]
  TGI: 58.4 µM
[7]
  TGI: 52.9 µM
[8]
  TGI: 47.2 µM
[9]
  TGI: 42.4 µM
[10]
  TGI: 41.2 µM
[11]
  TGI: 33.8 µM
[12]
  TGI: 47.6 µM
[13]
  TGI: 54.1 µM
[14]
  TGI: 44.9 µM
[15]
  TGI: 37.3 µM
[54]
  TGI: 38.3 µM
[17]
  TGI: 65.3 µM
[18]
  TGI: 51.4 µM
[19]
  TGI: 67.5 µM
[20]
  TGI: 51.1 µM
[21]
  TGI: 40.3 µM
[23]
  TGI: 51.6 µM
[24]
  TGI: 84 µM
[25]
  TGI: 21.4 µM
[26]
  TGI: 43.7 µM
[27]
  TGI: 86.4 µM
[55]
  TGI: 53.2 µM
[56]
  TGI: 30.2 µM
[28]
  TGI: 55.5 µM
[29]
  TGI: 49.2 µM
[30]
  TGI: 64.2 µM
[31]
  TGI: 44.8 µM
[32]
  TGI: 57.7 µM
[33]
  TGI: 41.9 µM
[34]
  TGI: 59.7 µM
[35]
  TGI: 40.7 µM
[36]
  TGI: 54.5 µM
[37]
  TGI: 45.1 µM
[38]
  TGI: 47.6 µM
[41]
  TGI: 80.1 µM
[58]
  TGI: > 100 µM
[42]
  TGI: 35.3 µM
[44]
  TGI: 20.6 µM
[45]
  TGI: 46.5 µM
[59]
  TGI: 36.2 µM
[46]
  TGI: 46.2 µM
[47]
  TGI: 63.7 µM
[48]
  TGI: 43.8 µM
[49]
  TGI: 32.4 µM
[50]
  TGI: 67.2 µM
[51]
  TGI: 32.7 µM
[57]
  TGI: 76.2 µM
[52]
  TGI: 61.9 µM

## CCCCCCCCCC1CC(=O)OC23CCCC(=O)C12O3 (centres undefined)
[1]
  TGI: > 100 µM
[2]
  TGI: > 100 µM
[3]
  TGI: > 100 µM
[4]
  TGI: > 100 µM
[5]
  TGI: > 100 µM
[53]
  TGI: > 100 µM
[6]
  TGI: > 100 µM
[7]
  TGI: 69.2 µM
[8]
  TGI: > 100 µM
[9]
  TGI: > 100 µM
[10]
  TGI: > 100 µM
[11]
  TGI: > 100 µM
[12]
  TGI: > 100 µM
[13]
  TGI: > 100 µM
[14]
  TGI: > 100 µM
[15]
  TGI: > 100 µM
[54]
  TGI: > 100 µM
[17]
  TGI: > 100 µM
[18]
  TGI: > 100 µM
[19]
  TGI: > 100 µM
[20]
  TGI: > 100 µM
[21]
  TGI: > 100 µM
[22]
  TGI: > 100 µM
[23]
  TGI: > 100 µM
[24]
  TGI: > 100 µM
[25]
  TGI: > 100 µM
[26]
  TGI: > 100 µM
[27]
  TGI: > 100 µM
[55]
  TGI: > 100 µM
[56]
  TGI: > 100 µM
[28]
  TGI: > 100 µM
[29]
  TGI: > 100 µM
[30]
  TGI: > 100 µM
[31]
  TGI: > 100 µM
[32]
  TGI: > 100 µM
[33]
  TGI: > 100 µM
[34]
  TGI: > 100 µM
[35]
  TGI: > 100 µM
[36]
  TGI: > 100 µM
[37]
  TGI: > 100 µM
[38]
  TGI: > 100 µM
[39]
  TGI: > 100 µM
[40]
  TGI: > 100 µM
[41]
  TGI: > 100 µM
[58]
  TGI: > 100 µM
[42]
  TGI: > 100 µM
[43]
  TGI: > 100 µM
[44]
  TGI: > 100 µM
[45]
  TGI: > 100 µM
[59]
  TGI: > 100 µM
[46]
  TGI: 71.4 µM
[48]
  TGI: > 100 µM
[49]
  TGI: > 100 µM
[50]
  TGI: > 100 µM
[51]
  TGI: > 100 µM
[57]
  TGI: > 100 µM
[52]
  TGI: > 100 µM
